Source: ChEMBL document CHEMBL1122054, “Lysosomotropic agents. 4. Carbobenzoxyglycylphenylalanyl, a new protease-sensitive masking group for introduction into cells” (J Med Chem, 1982)
Where a SMILES comes first, the peptide text is derived from it. [ ]: non-standard residue; d: D form. The star is where a group is joined. Cbz = O=C(OCc1ccccc1)*

Key:
Mus musculus [1] = species: Mus musculus; experiment: Toxicity toward P-815 Mastocytoma cells after 5 hr was determined as percent of [51Cr]- release from labeled cells as a measure of cell death. at a concentration of 0.282 mM. (expt IV); assay type: functional
Mus musculus [2] = species: Mus musculus; experiment: Toxicity toward P-815 Mastocytoma cells after 5 hr was determined as percent of [51Cr]- release from labeled cells as a measure of cell death. at a concentration of 0.282 mM. (expt III); assay type: functional
Mus musculus [3] = species: Mus musculus; experiment: Toxicity toward P-815 Mastocytoma cells after 5 hr was determined as percent of [51Cr]- release from labeled cells as a measure of cell death. at a concentration of 0.257 mM. (expt III); assay type: functional
Mus musculus [4] = species: Mus musculus; experiment: Cytotoxicity was determined for the compound against mouse peritoneal macrophages (MPM) at a concentration of 0.514 mM.; assay type: functional
Mus musculus [5] = species: Mus musculus; experiment: Toxicity was evaluated for the compound at a concentration of 0.257 mM against […] Mastocytoma.; assay type: functional
Mus musculus [6] = species: Mus musculus; experiment: Cytotoxicity was determined against mouse peritoneal macrophages (MPM) and the percent of LDH released after 24 hr was determined as a measure of cell death at a concentration of 0.375 mM (expt I); assay type: functional
Mus musculus [7] = species: Mus musculus; experiment: Cytotoxicity was determined against mouse peritoneal macrophages (MPM) and the percent of LDH released after 24 hr was determined as a measure of cell death at a concentration of 0.375 mM (expt II); assay type: functional
Mus musculus [8] = species: Mus musculus; experiment: Cytotoxicity was determined for the compound against mouse peritoneal macrophages (MPM) at a concentration of 0.541 mM.; assay type: functional
Mus musculus [9] = species: Mus musculus; experiment: Toxicity was evaluated for the compound at a concentration of 0.208 mM against […] Mastocytoma.; assay type: functional
Mus musculus [10] = species: Mus musculus; experiment: Toxicity toward P-815 Mastocytoma cells after 5 hr was determined as percent of [51Cr]- release from labeled cells as a measure of cell death. at a concentration of 0.208 mM. (expt III); assay type: functional
Mus musculus [11] = species: Mus musculus; experiment: Cytotoxicity was determined against mouse peritoneal macrophages (MPM) and the percent of LDH released after 24 hr was determined as a measure of cell death at a concentration of 0.561 mM (expt II); assay type: functional
Mus musculus [12] = species: Mus musculus; experiment: Toxicity toward P-815 Mastocytoma cells after 5 hr was determined as percent of [51Cr]- release from labeled cells as a measure of cell death. at a concentration of 0.281 mM. (expt IV); assay type: functional
Mus musculus [13] = species: Mus musculus; experiment: Toxicity toward P-815 Mastocytoma cells after 5 hr was determined as percent of [51Cr]- release from labeled cells as a measure of cell death. at a concentration of 0.750 mM. (expt III); assay type: functional
Mus musculus [14] = species: Mus musculus; experiment: Appearance of mouse peritoneal macrophages after 3h of treatment with compound at a concentration of 0.375 mM; OK; assay type: functional, organism-based

Q: With `NC(=O)[C@@H](Cc1ccccc1)NC(=O)CNC(=O)OCc1ccccc1` as the compound, how does the Cr release (Mus musculus [1]) read?
A: 17%

Q: Which Cr release (Mus musculus [2]) does the source give for `NC(=O)[C@H](Cc1ccccc1)NC(=O)CNC(=O)OCc1ccccc1` here?
A: 17%

Q: What does the source list for `CCCCCCCCCCCCNC(=O)[C@@H](Cc1ccccc1)NC(=O)CN`?
A: Cr release (Mus musculus [3]): 95%; Toxicity (Mus musculus [4]): 200 µg/mL; Toxicity (Mus musculus [5]): 100 µg/mL; LDH release (Mus musculus [6]): 85%; LDH release (Mus musculus [7]): 78%; Toxicity (Mus musculus [8]): 210 µg/mL

Q: How did the Toxicity (Mus musculus [9]) turn out when `O=C(CNC(=O)OCc1ccccc1)N[C@@H](Cc1ccccc1)C(=O)N(CCCl)CCCl` was run?
A: 100 µg/mL

Q: What about the Cr release (Mus musculus [10]) of the same compound?
A: 16%

Q: `O=C(CNC(=O)OCc1ccccc1)N[C@H](Cc1ccccc1)C(=O)O` (Cbz-Gly-[dF]-OH) was tested. Which LDH release (Mus musculus [11]) did it give?
A: 17%

Q: And the Cr release (Mus musculus [12])?
A: 16%

Q: For `CCCCCCCCCCCCNCC(F)(F)F`, which Cr release (Mus musculus [13]) is on record?
A: 15%

Q: And the LDH release (Mus musculus [6])?
A: 52%

Q: And the Activity (Mus musculus [14])?
A: OK

Q: And the LDH release (Mus musculus [7])?
A: 64%
